The values below are quoted from earlier work in US20080131879A1, “Detection of Subjects at Risk For Chd By a Genotype Evaluation Associated With Serum Plant Sterols Enabling Individualized (Drug) Treatment on Demand” (University Van Maastricht, priority 2004, published 2008).

The conditions of this data set: intestinal absorption from diet.

As for `CC(C)[C@H](C)CC[C@@H](C)[C@H]1CC[C@H]2[C@@H]3CC=C4C[C@@H](O)CC[C@]4(C)[C@H]3CC[C@]12C` [campesterol], the Absorption is reported as 1.89%. `CC[C@H](CC[C@@H](C)[C@H]1CC[C@H]2[C@@H]3CC=C4C[C@@H](O)CC[C@]4(C)[C@H]3CC[C@]12C)C(C)C` [sitosterol]: the Absorption is listed as 0.51%.
